Data reported in patent publication US20250270173A1, “PYRIDINE DERIVATIVES FOR TREATING PSYCHIATRIC DISORDERS” (GILGAMESH PHARMACEUTICALS, INC., priority 2022, published 2025).
Where “and” joins values, the source holds several entries; their conditions need not be identical. Equal values may be shown once. Read-outs that look alike come from different tables or passages of the source.

Experiments:
C57BL/6 mice [1] = assay: Automated (video tracking) head twitch response (HTR) assay in mice; type: in vivo; details: SC; for ED50: 20 min recording; for Most Efficacious Dose; mg/kg: dose giving the most HTR
Procedure: Disclosed compounds were tested for their ability to induce a head twitch response (HTR) in mice using an automated video tracking procedure, with the results summarized in Table 5. […] The phenyl Compound 44 was substantially more efficacious at inducing HTR than its pyridine counterpart Compound 29, in agreement with the generally lower maximal efficacy of the disclosed pyridine compounds for signaling through 5-HT2A receptors.
(§1) Animals. Adult male C57BL/6 mice aged 8-10 weeks (body weight 20-25 g) were used in these experiments. Animals were housed under controlled temperatures and 12-hour light/dark cycles (lights on between 07:00-19:00 h), with ad libitum food and water. The protocol was approved by the Institutional Animal Care and Use Committee at the study site. This study was carried out in strict accordance with the recommendations in the Guide for the Care and Use of Laboratory Animals of the National Institutes of Health. All efforts were made to minimize suffering.
Drugs and Drug Administration. […] was commercially obtained. Disclosed compounds were synthesized as described above. They were administered subcutaneously (SC) dissolved in saline (or saline acidified with 1-2 molar equivalents HCl to form the salt in situ for freebase compounds) at a volume of 10 mL/kg. Five doses were tested, with N=5-8 animals/group. Doses were calculated on the basis of the freebase, except for DOI, which was calculated based on the HCl salt.
Procedure. Mice were administered one dose of the drug and immediately placed into a small open field for behavioral observation. High-speed video of animals' behavior was captured continuously for 20 min. Video recordings were imported into an image processing software, which detects multiple points of interest on each animal's body, including the left and right ear. HTR events were defined as periodic deviations of ear locations from temporally averaged ear locations. Predefined thresholds for magnitude and frequency of location deviations were used to filter […] events from random head movements. The method was validated by comparing detected events with manual (human) observations and found to have an accuracy >95%. The total number of HTR events counted during the 20-min recording were determined for each animal at each dose.
(§2) Statistical Analysis. Analysis was performed using GraphPad Prism 9. Dose-response curves were fit via non-linear regression using the Gaussian 2020 function in Prism in order to determine the ED50 and Emax for each compound.

5-HT2A receptor [2] = biological target: T1, 5-HT2A receptor (Homo sapiens (Human), UniProt P28223); assay: FLIPR Ca2+ flux functional assay at 5-HT2A (HEK293); details: for 5-HT2A % Act @ Max Conc.: HEK293, at max concentration
human 5-HT2C receptor = human 5-HT2C receptor (Homo sapiens (Human), UniProt P28335); assay: FLIPR Ca2+ flux functional assay at 5-HT2C (Eurofins DiscoverX); type: cell-based; details: Ca2+ flux, human 5-HT2C; for 5-HT2C % Act @ Max Conc.: at max concentration; for EC50: read-out: 5-HT2C EC50
Chain of human 5-HT2C receptor (P28335 whole entry, looked up): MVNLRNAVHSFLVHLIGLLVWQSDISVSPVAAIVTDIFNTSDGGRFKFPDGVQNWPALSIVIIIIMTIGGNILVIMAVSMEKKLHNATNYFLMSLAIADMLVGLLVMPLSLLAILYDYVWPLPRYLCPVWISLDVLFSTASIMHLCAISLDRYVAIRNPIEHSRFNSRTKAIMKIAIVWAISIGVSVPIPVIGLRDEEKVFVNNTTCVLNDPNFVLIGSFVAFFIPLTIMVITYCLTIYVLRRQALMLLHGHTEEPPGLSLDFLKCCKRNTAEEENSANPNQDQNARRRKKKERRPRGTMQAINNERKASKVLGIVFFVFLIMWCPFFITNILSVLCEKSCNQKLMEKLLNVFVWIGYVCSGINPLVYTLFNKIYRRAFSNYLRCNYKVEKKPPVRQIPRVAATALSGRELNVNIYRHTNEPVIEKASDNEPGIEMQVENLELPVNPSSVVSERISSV
Procedure: Functional Assays at 5-HT2C Receptors. […] Probenecid was prepared fresh. Cells were loaded with dye prior to testing and incubated at 37° C. for 30-60 minutes. After dye loading, cells were removed from the incubator and 10 μL HBSS/20 mM Hepes was added. 3× vehicle was included in the assay buffer. Cells were incubated for 30 mins at room temperature in the dark to equilibrate plate temperature. Intermediate dilution of sample stocks was performed to generate 4× sample in assay buffer. Compound agonist activity was measured on a FLIPR Tetra (MDS). Calcium mobilization was monitored for 2 minutes and 10 μL 4× sample in HBSS/20 mM Hepes was added to the cells 5 seconds into the assay.

5-HT2B receptor = 5-HT2B receptor (Homo sapiens (Human), UniProt P41595); assay: FLIPR Ca2+ flux functional assay at 5-HT2B (HEK293); details: for 5-HT2B % Act @ Max Conc.: HEK293, at max concentration
Chain of 5-HT2B receptor (P41595 whole entry, looked up): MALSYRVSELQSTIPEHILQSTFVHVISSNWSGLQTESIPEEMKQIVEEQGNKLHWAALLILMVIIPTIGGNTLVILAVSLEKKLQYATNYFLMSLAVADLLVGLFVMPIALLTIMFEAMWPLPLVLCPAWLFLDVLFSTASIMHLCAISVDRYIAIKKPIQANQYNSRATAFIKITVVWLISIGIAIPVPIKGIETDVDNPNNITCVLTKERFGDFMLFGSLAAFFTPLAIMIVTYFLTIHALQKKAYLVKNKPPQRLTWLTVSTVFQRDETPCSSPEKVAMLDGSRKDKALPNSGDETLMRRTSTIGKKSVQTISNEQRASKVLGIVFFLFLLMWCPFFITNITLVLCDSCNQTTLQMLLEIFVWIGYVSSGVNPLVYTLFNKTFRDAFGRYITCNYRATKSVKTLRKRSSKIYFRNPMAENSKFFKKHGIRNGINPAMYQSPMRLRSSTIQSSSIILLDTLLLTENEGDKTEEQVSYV

C57BL/6 mice [3] = assay: Manual head twitch response (HTR) assay in mice; type: in vivo; details: SC; for ED50: 20 min observation
Procedure: Agonists of the 5-HT2A receptor are well known to induce this effect in rodents and the potency of this HTR is correlated with hallucinogenic potency in humans.
as §1
Drugs and Drug administration. DOI was commercially obtained. All other compounds were synthesized as described above. All drugs were administered subcutaneously (SC) dissolved in saline vehicle (or saline acidified with 1-2 molar equivalents HCl to form the salt in situ for freebase compounds) and at a volume of 10 mL/kg. Drugs were administered at 4 or 5 doses per compound, using n=6 animals/group. Doses were calculated on the basis of the freebase form, except for DOT, which was calculated based on the HCl salt.
Procedure. Mice were administered one dose of the drug (or vehicle) SC and immediately placed into a small open field for behavioral observation. Animals were observed continuously for 20 mins and the number of head twitches (HTs) were counted by an observer blind to the treatment condition.
as §2

5-HT1A receptor = 5-HT1A receptor (Homo sapiens (Human), UniProt P08908); assay: FLIPR Ca2+ flux functional assay at 5-HT1A (CHO cells); details: for 5-HT1A % Act @ Max Conc.: at max concentration
5-HT2A receptor [4] = biological target: T1, 5-HT2A receptor; assay: 5-HT2A receptor radioligand binding with [3H]ketanserin; details: read-out: Ki at 5-HT2A Receptor (nM) ([3H]ketanserin); HEK293 stable cell line, 1 nM [3H]ketanserin, 1 h, 25 °C
[5] = read-out: 5-HT2B EC50, Ca2+ flux, HEK293
[6] = read-out: 5-HT2A EC50, Ca2+ flux, HEK293
[7] = read-out: 5-HT1A EC50, Ca2+ flux, CHO cells
[8] = Mus musculus, 20 min, read-out: ED50

| Structure (SMILES) | Emax (HTR counts/20 min) (C57BL/6 mice [1]) | ED50 (C57BL/6 mice [1]) [mg/kg] | # HTR/20 min at Most Efficacious Dose (C57BL/6 mice [1]) [HTR/20 min] | Most Efficacious Dose; mg/kg (C57BL/6 mice [1]) | 5-HT2A % Act @ Max Conc. (5-HT2A receptor [2]; Ca2+ flux) | 5-HT2C % Act @ Max Conc. (human 5-HT2C receptor) [%] | EC50 (human 5-HT2C receptor) [nM] | 5-HT2B % Act @ Max Conc. (5-HT2B receptor; Ca2+ flux) [%] | EC50 (5-HT2B receptor; [5]) [nM] | Emax (HTR counts/20 min) (C57BL/6 mice [3]) | ED50 (C57BL/6 mice [3]) [mg/kg] | 5-HT1A % Act @ Max Conc. (5-HT1A receptor; Ca2+ flux, CHO cells) [%] | Ki (5-HT2A receptor [4]) [nM] | EC50 (5-HT2A receptor [2]; [6]) [nM] | EC50 (5-HT1A receptor; [7]) [nM] | EC50 (5-HT2A receptor [2]) [nM] | EC50 (5-HT2B receptor) [nM] | EC50 (5-HT1A receptor) [nM] | ED50 (C57BL/6 mice [3]; [8]) [mg/kg] | ED50 (C57BL/6 mice [1]; [8]) [mg/kg] |
| --- | --- | --- | --- | --- | --- | --- | --- | --- | --- | --- | --- | --- | --- | --- | --- | --- | --- | --- | --- | --- |
| COc1cc(CC(C)N)c(OC)cc1I (stereo not drawn) [DOI, reference compound] | 82.02 | 0.531 | 81.5 | (3.2) mg/kg | 106% | 92.6 | 0.818 | 86.3 | 4.88 | 35.7 | 0.428 | −2.47 | – | – | – | – | – | – | – | – |
| COc1cc(C(F)(F)F)c(OC)cc1CCN [Compound 2C-TFM, 2C-TFM, reference compound] | – | – | – | – | 81.5% | 88.2 | 0.593 | 82.0 | 16.3 | – | – | −0.647 | 15.8 | 1.05 | > 10000 | – | – | – | – | – |
| CCCCCCc1cc(OC)c(CC(C)N)nc1OC (stereo not drawn) [Compound 38, 1-(5-hexyl-3,6-dimethoxypyridin-2-yl)propan-2-amine] | – | – | – | – | 83.97% | 79.49 | 159 | 4.76 | – | – | – | 123.88 | 3.1 | – | – | 11.4 | > 10000 | 56900 | – | – |
| COc1cc(CCNCc2ccccc2OC)c(OC)cc1C [Compound 25D-NBOMe, 25D-NBOMe, reference compound] | – | – | – | – | 97.5% | 91.5 | < 0.508 | 43.3 | 1.27 | – | – | −4.43 | 2.52 | 0.251 | > 10000 | – | – | – | – | – |
| CCCCCc1cc(OC)c(CC(N)CC)nc1OC (stereo not drawn) [Compound 1, 1-(3,6-dimethoxy-5-pentylpyridin-2-yl)butan-2-amine] | – | – | – | – | 25% and 25.3% | 44.38 | 5470 | 0.18 | – | 18.78 | – | 188 | 40 | – | – | 115 | – | 20200 | 0.897 | – |
| CCC(N)Cc1nc(OC)c(Cl)cc1OC (stereo not drawn) [Compound 18, 1-(5-chloro-3,6-dimethoxypyridin-2-yl)butan-2-amine] | – | – | 33.12 | (10) mg/kg | 70.92% | 36.76 | 2250 | 2.75 | – | – | – | 1.33 | 1200 | – | – | 370 | > 10000 | > 100000 | – | – |
| COc1cc(CCCCCC(F)(F)F)c(OC)nc1CCN [Compound 30, 2-(3,6-dimethoxy-5-(6,6,6-trifluorohexyl)pyridin-2-yl)ethan-1-amine] | 16.80 | – | 17.5 | (3.2) mg/kg | 73.21% | – | – | 23.14 | – | – | – | 55.61 | 6.01 | – | – | 65 | 1670 | 91600 | – | 5.87 |
| CCCCCc1cc(OC)c(CCN)nc1OC [Compound 7, 2-(3,6-dimethoxy-5-pentylpyridin-2-yl)ethan-1-amine] | 24.61 | – | 23.25 | (1) mg/kg | 82.88% | 92.53 | 16.2 | 11.56 | – | – | – | 61.95 | 6.32 | – | – | 20 | > 10000 | 51900 | – | 4.88 |
| COc1cc(CCCCF)c(OC)nc1CCN [Compound 32, 2-(5-(4-fluorobutyl)-3,6-dimethoxypyridin-2-yl)ethan-1-amine] | – | – | – | – | 81.86% | 99.77 | 22.8 | −0.69 | – | – | – | 0.5 | 103 | – | – | 20.8 | > 10000 | > 100000 | – | – |
